In patent US20230105212A1, “BIPHENYL DERIVATIVE INHIBITOR, PREPARATION METHOD THEREFOR AND USE THEREOF” (SHANGHAI HANSOH BIOMEDICAL CO., LTD., priority 2020, published 2023):

How the values were obtained:
[1] = tested on: CHO-PDL1/Jurkat-PD1 cell pathway; assay: Inhibition of CHO-PDL1/Jurkat-PD1 cell pathway (NFAT luciferase reporter); assay type: cell-based; details: for EC50: 6 hours incubation, luciferase signal; for maximal fold induction: relative to the signal value of the non-dosed group, read-out: Maximum induction fold
Method: Test Embodiment 3. Inhibitory Effect of the Compounds of the Present Disclosure on CHO-PDL1/Jurkat-PD1 Cell Pathway
Experimental purpose: The purpose of this test embodiment was to test the inhibitory effect of compounds on the CHO-PDL1/Jurkat-PD1 cell pathway.
Experimental method: Two stably transfected cell lines were included in this experiment, CHO-K1 cells stably transfected with PD-L1 and Jurkat cells stably transfected with PD-1 and NFAT luciferase reporter genes. Compounds were incubated with the two cell lines. Then, due to the inhibitory effect on the PD-1/PD-L1 pathway, the activation degree of Jurkat cells changed, so that the level of the reporter gene NFAT in the downstream of Jurkat cells changed, and the level of NFAT was characterized by detecting the signal value of luciferase, so that the inhibitory effect of the test compound on CHO-PDL1/Jurkat-PD1 pathway was characterized.
CHO-PDL1 cells (Promega, #J1252) were cultured to a suitable cell density. After digestion, the cells were resuspended by complete medium to become a suitable density of cell suspension. The cell suspension was plated 100 μL per well on a 96-well plate (Corning, #3610), and placed in a 37° C., 5% CO2 incubator and incubated overnight, and assay medium (RPMI 1640+2% FBS, RPMI 1640 Cat. No.: Gibco, #22400089, FBS Cat. No.: Gibco, #10091148) was used to prepare compound solutions of different concentrations. NFAT-luc2/PD1 Jurkat cells (Promega, #J1252) were collected and resuspended to the appropriate cell density using assay medium. The supernatant of the CHO-PDL1 cell culture plate was aspirated, and 40 μL of the prepared compound solution and 40 μL of resuspended NFAT-luc2/PD1 Jurkat cells were added, and incubated in a 5% CO2 incubator at 37° C. for 6 hours, and the cell plate was taken out, then 40 μL of One-Glo reagent (Promega, #E6120) was added to each well, shaked and mixed well, incubated in the dark at room temperature for 10 minutes, then put into a microplate reader and the luminescence program was used to read the luminescence value of the cell plate.
The EC50 value was fitted according to the compound concentration and the luminescence signal value, and the maximum induction fold of each compound relative to the signal value of the non-dosed group was calculated, as shown in Table 3.

[2] = target: T1, PD-L1 protein on the surface of MC38-hPDL1 tumor cells (Homo sapiens, UniProt Q9NZQ7); assay: Induction of endocytosis of PD-L1 on the surface of tumor cells (flow cytometry); assay type: cell-based; details: 16 hours incubation; for Emax: MC38-hPDL1 cells, read-out: MC38 maximum endocytosis rate; for IC50: inducing endocytosis of PD-L1, MC38-hPDL1 cells, read-out: MC38 IC50
T1 construct: expressed in transfected cells; host or cells: MC38-hPDL1 (mouse colon cancer cells)
T1 sequence (Q9NZQ7 19-290): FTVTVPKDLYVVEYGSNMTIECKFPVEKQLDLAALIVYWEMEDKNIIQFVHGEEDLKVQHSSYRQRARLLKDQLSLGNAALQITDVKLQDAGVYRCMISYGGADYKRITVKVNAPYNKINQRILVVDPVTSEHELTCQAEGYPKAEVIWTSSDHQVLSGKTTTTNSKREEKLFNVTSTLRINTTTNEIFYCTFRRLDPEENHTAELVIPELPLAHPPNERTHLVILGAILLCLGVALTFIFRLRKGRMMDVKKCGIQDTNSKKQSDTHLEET
Summary of the method: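 IC50 comes from nonlinear fits of endocytosis rate, calculated from the loss of surface PE-anti-CD274 flow signal relative to vehicle. Cells were MC38 mouse colon cancer cells engineered to express high human PD-L1. Compound exposure lasted 16 h at 37 °C, 5% CO2.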

human PD-1/PD-L1 binding = target: T2, human PD-1/PD-L1 binding (Homo sapiens, UniProt Q9NZQ7); assay: Inhibition of human PD-1/PD-L1 binding (TR-FRET/HTRF); details: TR-FRET, PD-L1-His and PD-1-Fc; read-out: PD-1/PD-L1 binding IC50
T2 construct: PD-L1-His protein (19 to 238 amino acids) (Abcam #ab167713); purchased Abcam (PD-L1-His); R&D (PD-1-Fc) ab167713; 1086-PD
T2 sequence (Q9NZQ7 19-238): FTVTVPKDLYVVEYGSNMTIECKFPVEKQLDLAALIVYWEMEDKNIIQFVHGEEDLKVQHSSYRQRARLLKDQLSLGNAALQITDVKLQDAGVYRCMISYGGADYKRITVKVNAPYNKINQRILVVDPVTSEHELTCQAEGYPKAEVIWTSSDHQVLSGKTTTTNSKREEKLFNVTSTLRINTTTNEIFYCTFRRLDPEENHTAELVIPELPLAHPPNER
Summary of the method: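 PD-L1-His (aa 19–238, diluted to 10 nM) and PD-1-Fc (aa 25–167, diluted to 20 nM) incubated with compounds (10 μM or 1 μM top, 3-fold, 11 doses) 60 min at room temperature, then anti-6HIS Eu cryptate/anti-human IgG-XL665 added for 3 h RT or overnight 4 °C. HTRF 665/620 nm ratio gave inhibition and IC50.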

human PD-L1 protein = target: T3, human PD-L1 protein (Homo sapiens, UniProt Q9NZQ7); assay: Thermal shift: melting temperature of PD-L1 protein; assay type: binding; details: compound 10 μM, PD-L1 protein 2 μM, Tm minus DMSO vehicle control; read-out: ΔTm (° C.)
T3 construct: purchased Acro Biosystems PD1-H5229
T3 sequence (Q9NZQ7 19-238 limits assumed): as the sequence (Q9NZQ7 19-238) above
Summary of the method: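 Human PD-L1 at 2 μM final was tested in […], 150 mM NaCl with SYPRO Orange, heated 25→95 °C at 0.03 °C/s in a PCR melt-curve run. Tm was taken per treatment; ΔTm is the shift relative to DMSO vehicle.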

SMILES	Emax [2]	IC50 (human PD-1/PD-L1 binding)	ΔTm at 10 µM (human PD-L1 protein)	IC50 [2]	EC50 [1]	maximal fold induction [1]
COc1cc(C(=O)Nc2cccc(-c3cccc(NC(=O)c4nc5c(n4C)CCN(C)C5)c3Cl)c2C)ncc1CNC1COC1 [Embodiment 36, N-(2-Chloro-3′-(4-methoxy-5-((oxetan-3-ylamino)methyl)picolinamido)-2′-methyl-[1,1′-biphenyl]-3-yl)-1,5-dimethyl-4,5,6,7-tetrahydro-1H-imidazo[4,5-c]pyridine-2-carboxamide]	94%	5 nM	–	3.1 nM	93 nM	3.1
CNC(=O)C1CN(Cc2ccc(-c3cccc(-c4cccc(NC(=O)c5nc6c(n5C)CCN(C)C6)c4Cl)c3Cl)nc2OC)C1 [Embodiment 184, N-(2,2′-Dichloro-3′-(6-methoxy-5-((3-(methylcarbamoyl)azetidin-1-yl)methyl)pyridin-2-yl)-[1,1′-biphenyl]-3-yl)-1,5-dimethyl-4,5,6,7-tetrahydro-1H-imidazo[4,5-c]pyridine-2-carboxamide]	96%	7 nM	16.7 °C	–	62 nM	2.8
COc1nc(-c2cccc(-c3cccc(NC(=O)c4nc5c(n4C)CCN(C)C5)c3Cl)c2Cl)ccc1CN1CC(CNC(C)=O)C1 [Embodiment 181, N-(3′-(5-((3-(Acetylaminomethyl)azetidin-1-yl)methyl)-6-methoxypyridin-2-yl)-2,2′-dichloro-[1,1′-biphenyl]-3-yl)-1,5-dimethyl-4,5,6,7-tetrahydro-1H-imidazo[4,5-c]pyridine-2-carboxamide]	97%	3.4 nM	15 °C	–	59 nM	–
COc1cc(C(=O)Nc2cccc(-c3cccc(NC(=O)c4nc5c(n4C)CCN(C)C5)c3Cl)c2C)ncc1CNCC(C)O (stereo in doubt) [Embodiment 38, (S)—N-(2-Chloro-3′-(5-(((2-hydroxypropyl)amino)methyl)-4-methoxypicolinamido)-2′-methyl-[1,1′-biphenyl]-3-yl)-1,5-dimethyl-4,5,6,7-tetrahydro-1H-imidazo[4,5-c]pyridine-2-carboxamide]	96%	2.8 nM	–	0.6 nM	46 nM	3.7

Continued, in another order:

Emax [2]	IC50 (human PD-1/PD-L1 binding)	ΔTm at 10 µM (human PD-L1 protein)	IC50 [2]	SMILES	EC50 [1]	maximal fold induction [1]
96%	3.6 nM	14.5 °C	–	COc1nc(-c2cccc(-c3cccc(NC(=O)c4nc5c(n4C)CCN(C)C5)c3Cl)c2Cl)ccc1CN1CC2(CCN(C(C)=O)C2)C1 [Embodiment 195, N-(3′-(5-((6-Acetyl-2,6-diazaspiro[3.4]octan-2-yl)methyl)-6-methoxypyridin-2-yl)-2,2′-dichloro-[1,1′-biphenyl]-3-yl)-1,5-dimethyl-4,5,6,7-tetrahydro-1H-imidazo[4,5-c]pyridine-2-carboxamide]	89 nM	3.6
96%	6.4 nM	12.3 °C	–	COc1nc(-c2cccc(-c3cccc(NC(=O)c4nc5c(n4C)CCN(C)C5)c3Cl)c2Cl)ccc1CN1CC2(CN(C=O)C2)C1 [Embodiment 193, N-(2,2′-Dichloro-3′-(5-((6-formyl-2,6-diazaspiro[3.3]heptan-2-yl)methyl)-6-methoxypyridin-2-yl)-[1,1′-biphenyl]-3-yl)-1,5-dimethyl-4,5,6,7-tetrahydro-1H-imidazo[4,5-c]pyridine-2-carboxamide]	84 nM	2.8
93%	4.3 nM	16 °C	–	COc1nc(-c2cccc(-c3cccc(NC(=O)c4nc5c(n4C)CCN(C)C5)c3Cl)c2Cl)ccc1CN1CCC2(CC1)CN(C(C)=O)C2 [Embodiment 197, N-(3′-(5-((2-Acetyl-2,7-diazaspiro[3.5]nonan-7-yl)methyl)-6-methoxypyridin-2-yl)-2,2′-dichloro-[1,1′-biphenyl]-3-yl)-1,5-dimethyl-4,5,6,7-tetrahydro-1H-imidazo[4,5-c]pyridine-2-carboxamide]	67 nM	3.5
